Tests used:
[1] = tested on: Jak2/Stat5 tyrosine phosphorylation in Baf3 cells; assay: cellular protein tyrosine phosphorylation in Baf3 cells, Western blotting; assay type: cell-based, murine
Description: For induction of cellular protein phosphorylation by sodium stibogluconate or pervanadate, Baf3 cells were incubated in 0.1% FCS-RPMI 1640 medium at 37° C. for 16 hours. The cells were then washed twice in RPMI 1640 medium and incubated with sodium stibogluconate or pervanandate (0.1 mM) for various times prior to termination by lysing cells in cold lysis buffer (50 mM Tris, pH 7.4; 150 mM NaCl; 0.2 mM Na3VO4; 20 mm NaF; 1% Nonidet P-40; 2 mM PMSF; 20 μg/ml of Aprotinin and 1 mM of sodium molybdic acid). To determine the effect of sodium stibogluconate or potassium antimonyl tartrate on IL-3-induced Jak/Stat phosphorylation, Baf3 cells were deprived of the growth factor for 16 hours in 0.1% FCS RPMI 1640 medium and then incubated with or without sodium stibogluconate or potassium antimonyl tartrate for 10 minutes. IL-3 was next added to the cell suspension and incubated for various times. The Cells were then harvested and lysed in cold lysis buffer at 4° C. for 45 minutes. Total cell lysates (TCL) were separated in SDS-PAGE gels, blotted onto nitrocellulose membrane (Schleicher & Schuell), probed with specific antibodies and detected using an enhanced chemiluminescence kit (ECL, Amersham, Arlington Heights, Ill.).

Baf3 cells = assay: Baf3 cell proliferation assay; assay type: cell-based, murine
Description: The murine hematopoietic cell line Baf3 was maintained in RPMI 1640 medium supplemented with 10% fetal calf serum (FCS) and murine IL-3 (20 units/ml) as described previously in Damen et al., J. Biol. Chem. 270, 23402 (1995). Human myeloid cell line TF-1 was maintained in RPMI 1640 supplemented with 10% FCS and 40 ng/ml of recombinant human GM-CSF as described previously in Thomassen et al., Clin. Immunol. 95, 85 (2000). For cell proliferation assays, cells were washed in 10% FCS medium twice, resuspended in 10% FCS medium, incubated at 37° C. for 16 hours, and then cultured at 37° C. in 10% FCS medium containing various amounts of cytokines, sodium stibogluconate, or potassium antimonyl tartrate for 3-6 days as indicated. The cell numbers in proliferation assays were determined by an MTT assay or by microscopic cell counting as indicated.

Renca cells = assay: Renca cell growth, MTT; assay type: cell-based, murine; settings: SSG 6.25-200 μg/ml, 6 days; listed as SSG
Text: Renca (Murphy, G. P., and W. J. Hrushesky. 1973. A murine renal cell carcinoma. J Natl Cancer Inst 50:1013), Jurkat (Gillis, S., and J. Watson. 1980. Biochemical and biological characterization of lymphocyte regulatory molecules. V. Identification of an interleukin 2-producing human leukemia T cell line. J Exp Med 152:1709) and WM9 (Forsberg, K., I. Valyi-Nagy, C. H. Heldin, M. Herlyn, and B. Westermark. 1993. Platelet-derived growth factor (PDGF) in oncogenesis: development of a vascular connective tissue stroma in xenotransplanted human melanoma producing PDGF-BB. Proc Natl Acad Sci USA 90:393) cell lines were obtained from a colleague at the Cleveland Clinic Foundation (CCF) and cultured in RPMI 1640 medium supplemented with 10% fetal calf serum (FCS). Recombinant IL-2 (Proleukin, 22 million IU/1.3 mg, Chiron, Emeryville, Calif.) was purchased from the CCF pharmacy. […] For cell growth inhibition assays, cells were cultured in absence or presence of various amounts of SSG for 6 days with viable cells quantified by MTT assays as described elsewhere (Pathak, M. K., and T. Yi. 2001. Sodium stibogluconate is a potent inhibitor of protein tyrosine phosphatases and augments cytokine responses in hemopoietic cell lines. J Immunol 167:3391).

Flag-PRL-2 = biological target: T1, Flag-PRL-2 (Homo sapiens, UniProt Q12974); assay: immunocomplex PTPase assay, NIH3T3 Flag-PRL-2 transfectants; assay type: cell-based, mouse
T1 construct: expressed in transfected cells; host or cells: NIH3T3 (pBabepuro, puromycin-selected)
Description: Immunocomplex PTPase assays were performed to assess the effects of sodium stibogluconate on intracellular PTPases. Cells were untreated or treated with sodium stibogluconate for 5 minutes, washed with fresh medium and then lysed in cold lysis buffer (50 mM Tris, pH 7.4; 150 mM NaCl; 1% NP40; 2 mM PMSF; 20 μg/ml of Aprotinin). The lysates were incubated with an anti-Flag antibody in immunoprecipitation assays. The immunocomplexes were collected with protein G sepharose beads (Pharmacia) and washed in cold lysis buffer for 4 times. […] C. for 18 hrs. 100 μL of malachite green solution (UBI) was added to each reaction prior to measurement of OD660 to quantify the amounts of free phosphate cleaved by the PTPases from the peptide substrate (Pathak et al., J. Immunol. 167, 3391 (2001)). The remaining 10% contents of individual samples were analyzed by SDS-PAGE/Western blotting to quantify the relative amounts of the phosphatase proteins. […]
The effects of sodium stibogluconate on intracellular PTPases were assessed using NIH3T3 or WM9 transfectants. […]

[2] = standard dosage 10-20 mg/kg/day; cited from earlier work

T1 sequence (Q12974 whole entry): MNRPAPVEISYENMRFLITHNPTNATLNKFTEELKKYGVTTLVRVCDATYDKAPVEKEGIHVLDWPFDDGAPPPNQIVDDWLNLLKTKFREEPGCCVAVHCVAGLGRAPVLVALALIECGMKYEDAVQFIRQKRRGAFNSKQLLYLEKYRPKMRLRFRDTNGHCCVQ

O.O.O.O.O.O.O.O.O.O=C([O-])[C@@H]1[O][Sb]2([O-])([O][Sb]34([OH])[O][C@H]([C@H](O)CO)[C@H]([O]3)[C@H](C(=O)[O-])[O]4)[O][C@H]([C@H](O)CO)[C@@H]1[O]2.[Na+].[Na+].[Na+] [sodium stibogluconate]
induction of cellular protein tyrosine phosphorylation ([1]; Baf3 deprived of IL-3, compared with pervanadate 0.1 mM): modest and transient | phosphotyrosine levels of Jak2 and Stat5 versus cells without drug ([1]; IL-3 stimulated, densitometry): about twice | Jak2/Stat5 tyrosine phosphorylation by drug alone ([1]; no IL-3, 16 hours at 37 °C): failed to induce Jak2/Stat5 tyrosine phosphorylation | effect on IL-3-induced Baf3 growth (Baf3 cells; 1,000 μg/ml): suppressed IL-3-induced Baf3 growth | proliferation and viability in the absence of IL-3 (Baf3 cells; day 3 culture): failed to support cell proliferation or maintain cell viability | Renca cell growth in culture (Renca cells): failed to inhibit Renca cell proliferation | time required for full removal of effect on intracellular PRL-2 (Flag-PRL-2; brief treatment): at least 24 hours | PTPase activity of immunocomplexes from treated Flag-PRL-2 transfectants (Flag-PRL-2; cells treated 5 min): lack of PTPase activity | serum levels [2]: ≥ 10000 ng/mL
